In experiment [1] the target is T1, wild-type human CaSR (calcium-sensing receptor) (Homo sapiens, UniProt P41180).
T1 construct: full-length wild-type, cmyc-tagged
T1 sequence (P41180 20-1078): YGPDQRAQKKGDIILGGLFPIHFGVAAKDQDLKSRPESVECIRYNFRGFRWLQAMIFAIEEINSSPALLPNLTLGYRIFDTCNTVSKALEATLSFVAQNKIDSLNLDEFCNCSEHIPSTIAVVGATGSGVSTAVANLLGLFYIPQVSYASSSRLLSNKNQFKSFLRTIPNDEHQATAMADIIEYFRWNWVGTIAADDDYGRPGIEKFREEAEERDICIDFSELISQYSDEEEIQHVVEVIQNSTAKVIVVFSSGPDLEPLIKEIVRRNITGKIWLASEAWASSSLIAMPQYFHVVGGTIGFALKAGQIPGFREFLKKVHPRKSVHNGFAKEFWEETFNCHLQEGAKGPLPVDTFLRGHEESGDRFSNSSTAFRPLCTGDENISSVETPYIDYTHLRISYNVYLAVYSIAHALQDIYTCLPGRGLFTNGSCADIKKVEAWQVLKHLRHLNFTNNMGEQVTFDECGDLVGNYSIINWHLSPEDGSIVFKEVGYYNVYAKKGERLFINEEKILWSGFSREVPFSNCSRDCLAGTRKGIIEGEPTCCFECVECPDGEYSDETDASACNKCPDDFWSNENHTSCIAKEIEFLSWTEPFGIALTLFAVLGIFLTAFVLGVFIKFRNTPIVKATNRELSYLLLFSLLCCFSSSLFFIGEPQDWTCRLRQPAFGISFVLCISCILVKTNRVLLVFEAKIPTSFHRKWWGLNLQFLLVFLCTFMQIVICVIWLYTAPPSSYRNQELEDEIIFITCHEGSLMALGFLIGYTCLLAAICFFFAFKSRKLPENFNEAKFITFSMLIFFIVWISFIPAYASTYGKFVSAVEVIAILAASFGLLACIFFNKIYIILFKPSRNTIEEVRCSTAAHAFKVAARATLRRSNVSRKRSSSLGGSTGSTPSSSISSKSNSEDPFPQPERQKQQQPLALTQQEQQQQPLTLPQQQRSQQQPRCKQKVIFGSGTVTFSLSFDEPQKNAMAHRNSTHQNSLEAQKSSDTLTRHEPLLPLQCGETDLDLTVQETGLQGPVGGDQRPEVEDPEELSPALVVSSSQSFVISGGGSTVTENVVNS
Nature of the experiment: Ca2+i mobilisation (Fluo-8), operational model of allosteric modulation. The experiment is classed as cell-based. The settings on record: for Kb: read-out: pKB ± SEM (KB) (converted). An excerpt: Ca2+i mobilisation (Fluo-8), operational model of allosteric modulation on wild-type human CaSR (calcium-sensing receptor)

Experiment [2] deals with T1, wild-type human CaSR (calcium-sensing receptor). Nature of the experiment: Ca2+i mobilisation (Fluo-8), four-parameter sigmoidal fit with shared Hill slope. The settings on record: positive allosteric modulation of Ca2+o response, pH 7.4, 37 °C; KB not determinable. The format is cell-based.
[3] abbreviates: functional affinity estimate (from pKB), positive allosteric modulator, allosteric site, Ca2+o as orthosteric agonist, pH 7.4, 37 °C, reanalysis of the authors' previously published data, cited from earlier work.

The source of these data is PMC11942566, “Next-Generation Analogues of AC265347 as Positive Allosteric Modulators of the Calcium-Sensing Receptor: Pharmacological Investigation of Structural Modifications at the Stereogenic Centre” (International Journal of Molecular Sciences, 2025).

Read-outs that look alike come from different tables or passages of the source.

Regarding `C=CC(O)(c1nc2ccccc2s1)c1ccc(C)cc1C` (racemic) [7b, 1-(Benzo[d]thiazol-2-yl)-1-(2,4-dimethylphenyl)prop-2-en-1-ol], the Kb in experiment [1] is 8.1 µM.

As to `Cc1ccc(C(C)(O)c2nc3ccccc3s2)c(C)c1` (racemic) [compound 1, 1-(Benzo[d]thiazol-2-yl)-1-(2,4-dimethylphenyl)ethan-1-ol], the Kb in experiment [1] (setting [3]) was 3.4 µM.

In the case of `Cc1ccc(C(O)(c2nc3ccccc3s2)C(F)(F)F)c(C)c1` (racemic) [compound 5, 5], the Kb in experiment [1] (setting [3]) is 5 µM.

On to `Cc1ccc(C2(c3nc4ccccc4s3)CO2)c(C)c1` (racemic) [compound 6, 2-(2-(2,4-Dimethylphenyl)oxiran-2-yl)benzo[d]thiazole], for which the Kb in experiment [1] is 29 µM.

Consider `Cc1ccc(C2(c3nc4ccccc4s3)CCO2)c(C)c1` (racemic) [compound 7, 2-(2-(2,4-Dimethylphenyl)oxetan-2-yl)benzo[d]thiazole], for which the “pKB ± SEM (KB, μM)” value in experiment [1] (functional affinity estimate (from pKB), positive allosteric modulator, allosteric site, Ca2+o as orthosteric agonist, pH 7.4, 37 °C, unreliable (extrapolated beyond highest tested concentration 30 μM)) was 123 μM.

Take `COC(C)(c1nc2ccccc2s1)c1ccc(C)cc1C` (racemic) [compound 8, 2-(1-(2,4-Dimethylphenyl)-1-methoxyethyl)benzo[d]thiazole]: in experiment [2], the “fold increase in Ca2+o potency (pEC50) at 10 μM” value worked out at 1.8 fold.

Take `Cc1ccc(C(C)(F)c2nc3ccccc3s2)c(C)c1` (racemic) [compound 9, 2-(1-(2,4-Dimethylphenyl)-1-fluoroethyl)benzo[d]thiazole]: in experiment [1], the Kb is 10 µM.
